Drawing on BindingDB's records for doi:10.1021/acs.jmedchem.6b01870 (Purdue University, 2017), this text covers IC50 for one compound.

The target in test [1] is Tyrosyl-DNA phosphodiesterase 1 (Homo sapiens, UniProt Q9NUW8). Put plainly: ChEBML_1689436. The protocol: Inhibition of recombinant TDP1 (unknown origin) using 5'-[32P]-labeled single stranded DNA containing a 3'-phosphotyrosine as substrate after 15 mins by PAGE analysis
The target of test [2] is T1, Tyrosyl-DNA phosphodiesterase 2 (Homo sapiens, UniProt O95551).
T1 sequence (O95551 whole entry): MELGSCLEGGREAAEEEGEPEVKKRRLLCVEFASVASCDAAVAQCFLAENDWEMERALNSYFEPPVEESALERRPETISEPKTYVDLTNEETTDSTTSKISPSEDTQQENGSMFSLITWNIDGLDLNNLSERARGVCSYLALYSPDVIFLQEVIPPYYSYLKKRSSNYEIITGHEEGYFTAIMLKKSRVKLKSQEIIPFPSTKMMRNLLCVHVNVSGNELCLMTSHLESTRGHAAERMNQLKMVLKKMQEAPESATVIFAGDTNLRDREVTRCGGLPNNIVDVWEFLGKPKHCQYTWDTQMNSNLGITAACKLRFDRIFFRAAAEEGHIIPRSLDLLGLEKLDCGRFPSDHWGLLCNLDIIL
Put plainly: ChEBML_1689437.
Procedure: Inhibition of recombinant human TDP2 using 3'-labeled alpha-[32P]-cordycepin as substrate after 15 mins

Sequence of Tyrosyl-DNA phosphodiesterase 1 (Q9NUW8 whole entry): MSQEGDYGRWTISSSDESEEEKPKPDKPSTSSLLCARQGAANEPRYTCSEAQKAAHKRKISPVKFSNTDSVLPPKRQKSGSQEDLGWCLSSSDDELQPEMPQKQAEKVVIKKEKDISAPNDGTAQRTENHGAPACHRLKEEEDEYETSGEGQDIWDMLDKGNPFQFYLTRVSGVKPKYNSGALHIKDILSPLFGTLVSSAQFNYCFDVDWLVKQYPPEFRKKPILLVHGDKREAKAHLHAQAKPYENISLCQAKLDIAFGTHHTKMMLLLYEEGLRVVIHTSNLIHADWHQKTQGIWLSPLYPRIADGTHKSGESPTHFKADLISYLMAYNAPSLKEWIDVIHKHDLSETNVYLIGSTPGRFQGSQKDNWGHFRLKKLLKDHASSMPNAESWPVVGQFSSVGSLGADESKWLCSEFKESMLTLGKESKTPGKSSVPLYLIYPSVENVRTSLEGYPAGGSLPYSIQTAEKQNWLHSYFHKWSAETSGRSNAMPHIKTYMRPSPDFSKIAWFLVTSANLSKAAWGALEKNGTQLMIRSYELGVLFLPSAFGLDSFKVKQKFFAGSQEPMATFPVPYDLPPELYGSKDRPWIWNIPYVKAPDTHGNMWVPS

For the compound `CC[C@@]1(O)C(=O)OCc2c1cc1n(c2=O)Cc2cc3ccccc3nc2-1` [4-Ethyl-4-hydroxy-1,12-dihydro-4H-2-oxa-6,12a-diaza-dibenzo[b,h]fluorene-3,13-dione (Camptothecin)], the IC50 in test [1] and in test [2] was over 111 µM each time.

One may read the IC50 as the point on the concentration scale where inhibition reaches its midpoint. Read a high IC50 as weaker potency in that assay.
